Test results from article PMC12120022, “Discovery and chemical optimisation of a potent, Bi-cyclic antimicrobial inhibitor of Escherichia coli PBP3” (Communications Biology, 2025).
*1 amine or outer side, *2 acyl side, *3 side chain or, on linkers, in order; H or OH if unused. Where a SMILES comes first, the peptide text is derived from it. Bridges are numbered along the chain shown (N, C = ends). [ ]: non-standard residue; d: D form. TATA = O=C(CC[*:1])N1CN(C(=O)CC[*:2])CN(C(=O)CC[*:3])C1; Trp(6-Cl) = N[C@@H](Cc1c[nH]c2cc(Cl)ccc12)C(=O)O; hArg = N=C(N)NCCCC[C@H](N)C(=O)O

Columns and labels:
Mouse blood stability = format: in vitro ADME, CD-1 mice; settings: CD-1, mouse, whole blood (EDTA as anticoagulant), 37 °C, SAR peptides, read-out: Blood stability (t1/2) (converted)
Experimental: Stability assays were performed using freshly collected matrices from CD-1 mice, with anticoagulant as stated per dataset. Compound stocks in DMSO were tested at 5 μM final concentration (0.5% (v/v) DMSO). Compounds were incubated in blood or plasma at 37 °C for 24 h, with sampling at 0, 1, 2, 4, 6 and 24 h. Samples were prepared via protein precipitation using organic solvent containing internal standard, and analyzed by LC-MS/MS. Compound remaining was quantified based on the ratio of analyte to internal standard, and the half-life (t1/2) was calculated from a log linear plot of % remaining versus time.

EcPBP3 [1] = biological target: T1, EcPBP3 (Escherichia coli, UniProt P0AD68); assay: Fluorescence polarisation competition assay with BOCILLIN-FL as tracer; format: binding; settings: competition format, NB, non-binder (100 μM top concentration); for IC50: read-out: IC50 (nM) by fluorescence polarisation with Bocillin FL as tracer, Geometric mean (Lower 95% CI of geo. Mean; Upper 95% CI of geo. Mean, n=number of values)
T1 construct: For assays, selections and SPR a construct with residues 60–588 which has the N-terminal domain, but not the transmembrane helix, was used; made in house
Experimental: Binding of output peptides to EcPBP3 was evaluated using a fluorescence polarisation (FP) assay.
[…] 10 µL of protein (9.4 nM) was mixed with either 5 µL of peptide or 5 µL of buffer and then the assay was initiated by the addition of 10 µL of tracer (1 nM) (final volume 25 µL), in a black 384 low bind, low volume plate (Corning). The buffer was 10 mM HEPES (Sigma), 2% (v/v) glycerol (Sigma), 300 mM NaCl (Sigma), adjusted to pH 8. The plate was incubated for 1 h at 25 °C and then read in a PHERAstar FS (BMG) using with an “FP 485 520 520” optic module (excitation 485 nm, emission 520 nm). The gain was determined immediately prior to the read on a tracer-only well.
Dotmatics (Dotmatics) workflows performing the above calculations were used to process the data. Values quoted are the geometric means of at least 2 repeats.

EcPBP3 [2] = biological target: T1, EcPBP3; assay: SPR binding assay on immobilised EcPBP3; settings: 37 °C, kinetic fitting; NB = no binding at 2500 nM (Tables S-4, S-5) or 5000 nM (Table 1); read-out: Kd (nM) by SPR (geomean)
In short: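 EcPBP3 amine-coupled to CM5 chip (1500-2500 RU); compounds injected at 37 °C in 10 mM HEPES pH 8.0, 200 mM NaCl, 0.05% Tween-20, 2% DMSO, 50 μL min^–1, 150 s contact, 2400 s dissociation. Double-referenced sensorgrams kinetically fitted for Kd; geometric mean of ≥2 biological replicates.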

E. coli GKCW102 (EcPore) = settings: caMHB; biological replicates or their range
Experimental: To evaluate the engagement of EcPBP3 by a bicyclic peptide in whole cells lacking the outer membrane permeability barrier, peptides were screened in ‘hyperporinated’ E. coli strains in which a constitutively open FhuA pore (FhuAΔC/Δ4L, lacking N-terminal cork domain and external loops) was chromosomally expressed under control of an arabinose-inducible promoter.
Minimal inhibition concentration (MIC) assays were performed in accordance with CLSI standards, using cation-adjusted Mueller Hinton broth (caMHB; Sigma Aldrich) unless otherwise specified. Induction of pore expression in hyperporinated strains E. coli GKCW101 and GKCW102 was performed by addition of 0.1% (w/v) L-arabinose to cultures at OD600 ~ 0.3, with caMHB as the culture medium.

T1 sequence (P0AD68 60-588): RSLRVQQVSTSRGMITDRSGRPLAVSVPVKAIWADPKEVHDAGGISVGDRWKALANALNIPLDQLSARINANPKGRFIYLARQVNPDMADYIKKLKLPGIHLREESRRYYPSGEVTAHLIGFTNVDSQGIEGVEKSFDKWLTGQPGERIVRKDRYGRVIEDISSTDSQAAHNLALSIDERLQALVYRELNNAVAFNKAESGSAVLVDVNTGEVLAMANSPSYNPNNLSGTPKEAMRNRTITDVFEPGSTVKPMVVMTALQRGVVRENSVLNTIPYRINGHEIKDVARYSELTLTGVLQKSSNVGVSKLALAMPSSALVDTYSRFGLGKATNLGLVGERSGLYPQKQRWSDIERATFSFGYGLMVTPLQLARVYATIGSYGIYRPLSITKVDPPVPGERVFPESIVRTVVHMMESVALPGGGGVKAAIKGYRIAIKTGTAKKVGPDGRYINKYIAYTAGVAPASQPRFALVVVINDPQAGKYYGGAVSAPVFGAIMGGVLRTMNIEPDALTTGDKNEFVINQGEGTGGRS

Structure (SMILES)	half-life at 5 μM (Mouse blood stability) [h]	IC50 (EcPBP3 [1]) [nM]	other results
CC(=O)N[C@@H](C)C(=O)N[C@H]1CSCCC(=O)N2CN3CN(C2)C(=O)CCSC[C@H](NC(=O)[C@H](CCCCNC(=N)N)NC(=O)[C@@H]2CCCN2C(=O)[C@H](Cc2ccccc2)NC(=O)[C@H](CO)NC1=O)C(=O)N1CCC[C@H]1C(=O)N[C@@H](Cc1c[nH]c2ccccc12)C(=O)N[C@@H](C(C)C)C(=O)N[C@@H](CCC(=O)O)C(=O)NCC(=O)N[C@H](C(=O)N[C@@H](C)C(N)=O)CSCCC3=O [Peptide 73]	14.1	–	–
CC(=O)N[C@@H](C)C(=O)N[C@H]1CSCCC(=O)N2CN3CN(C2)C(=O)CCSC[C@H](NC(=O)[C@H](CCCCNC(=N)N)NC(=O)[C@@H]2CCCN2C(=O)[C@H](Cc2ccccc2)NC(=O)[C@H](CO)NC1=O)C(=O)N1CCC[C@H]1C(=O)N[C@@H](Cc1c[nH]c2cc(Cl)ccc12)C(=O)N[C@@H](C(C)C)C(=O)N[C@@H](CCC(=O)O)C(=O)NCC(=O)N[C@H](C(=O)N[C@@H](C)C(N)=O)CSCCC3=O [Peptide 75, [-Ac]ACSFP[HArg]CP[6ClTrp]VEGCA] (Ac-ACSFP[hArg]CP[Trp(6-Cl)]VEGCA-NH2; linker 2-7-13 via TATA)	11.4	–	–
CC(=O)N[C@H]1CSCCC(=O)N2CN3CN(C2)C(=O)CCSC[C@H](NC(=O)[C@H](CCCCNC(=N)N)NC(=O)[C@@H]2CCCN2C(=O)[C@H](Cc2ccccc2)NC(=O)[C@H](CO)NC1=O)C(=O)N1CCC[C@H]1C(=O)N[C@@H](Cc1c[nH]c2ccccc12)C(=O)N[C@@H](C(C)C)C(=O)N[C@@H](CCC(=O)O)C(=O)NCC(=O)N[C@H](C(=O)N[C@@H](C)C(N)=O)CSCCC3=O [Peptide 74] (HELM PEPTIDE1{[ac].C.S.F.P.[N=C(N)NCCCC[C@H](N[*:1])C(=O)[*:2]].C.P.W.V.E.G.C.A.[am]}|CHEM1{[O=C(CC[*:1])N1CN(C(=O)CC[*:2])CN(C(=O)CC[*:3])C1]}$PEPTIDE1,CHEM1,2:R3-1:R1|PEPTIDE1,CHEM1,7:R3-1:R2|PEPTIDE1,CHEM1,13:R3-1:R3$$$V2.0)	17.7	–	–
CC(C)C[C@@H]1NC(=O)[C@@H]2CCCN2C(=O)[C@H](Cc2ccc(O)cc2)NC(=O)[C@H](C(C)C)NC(=O)[C@H](C(C)C)NC(=O)[C@H](CCC(=O)O)NC(=O)[C@@H](NC(=O)[C@H](C)N)CSCCC(=O)N2CN3CN(C2)C(=O)CCSC[C@H](NC1=O)C(=O)N[C@@H](Cc1ccc(O)cc1)C(=O)N[C@@H](Cc1c[nH]c2ccccc12)C(=O)N[C@@H](CO)C(=O)N[C@@H](CC(=O)O)C(=O)N[C@H](C(=O)N[C@@H](C)C(N)=O)CSCCC3=O [Peptide 8] (HELM PEPTIDE1{A.C.E.V.V.Y.P.L.C.Y.W.S.D.C.A.[am]}|CHEM1{[O=C(CC[*:1])N1CN(C(=O)CC[*:2])CN(C(=O)CC[*:3])C1]}$PEPTIDE1,CHEM1,2:R3-1:R1|PEPTIDE1,CHEM1,9:R3-1:R2|PEPTIDE1,CHEM1,14:R3-1:R3$$$V2.0)	–	> 100000	–
CC(C)C[C@@H]1NC(=O)[C@@H]2CSCCC(=O)N3CN(CN(C3)C(=O)CCSC[C@@H](C(=O)N[C@@H](C)C(N)=O)NC(=O)[C@H](Cc3c[nH]c4ccccc34)NC(=O)[C@H](CC(=O)O)NC(=O)[C@H](CC(N)=O)NC(=O)[C@H](CCCCN)NC(=O)[C@H](C)NC1=O)C(=O)CCSC[C@H](NC(=O)[C@H](C)N)C(=O)N[C@@H](C)C(=O)N[C@@H](C)C(=O)N[C@@H](CC(=O)O)C(=O)N[C@@H](CCCNC(=N)N)C(=O)N[C@@H](CC(C)C)C(=O)N[C@@H](Cc1c[nH]c3ccccc13)C(=O)N2 [Peptide 1] (HELM PEPTIDE1{A.C.A.A.D.R.L.W.C.L.A.K.N.D.W.C.A.[am]}|CHEM1{[O=C(CC[*:1])N1CN(C(=O)CC[*:2])CN(C(=O)CC[*:3])C1]}$PEPTIDE1,CHEM1,2:R3-1:R1|PEPTIDE1,CHEM1,9:R3-1:R2|PEPTIDE1,CHEM1,16:R3-1:R3$$$V2.0)	–	> 100000	–
CC(C)C[C@@H]1NC(=O)[C@H](CCC(=O)O)NC(=O)[C@@H]2CCCN2C(=O)[C@@H]2CCCN2C(=O)[C@H](CC(C)C)NC(=O)CNC(=O)[C@@H]2CCCN2C(=O)[C@H](Cc2ccc(O)cc2)NC(=O)[C@@H](NC(=O)[C@H](C)N)CSCCC(=O)N2CN3CN(C2)C(=O)CCSC[C@H](NC1=O)C(=O)N[C@@H](CO)C(=O)N1CCC[C@H]1C(=O)N[C@@H](CO)C(=O)N[C@@H](Cc1ccccc1)C(=O)N[C@H](C(=O)N[C@@H](C)C(N)=O)CSCCC3=O [Peptide 10] (HELM PEPTIDE1{A.C.Y.P.G.L.P.P.E.L.C.S.P.S.F.C.A.[am]}|CHEM1{[O=C(CC[*:1])N1CN(C(=O)CC[*:2])CN(C(=O)CC[*:3])C1]}$PEPTIDE1,CHEM1,2:R3-1:R1|PEPTIDE1,CHEM1,11:R3-1:R2|PEPTIDE1,CHEM1,16:R3-1:R3$$$V2.0)	–	> 100000	–
C[C@H](N)C(=O)N[C@H]1CSCCC(=O)N2CN3CN(C2)C(=O)CCSC[C@H](NC(=O)[C@H](CCCCN)NC(=O)[C@@H]2CCCN2C(=O)[C@H](Cc2ccccc2)NC(=O)[C@H](CO)NC1=O)C(=O)N1CCC[C@H]1C(=O)N[C@@H](Cc1c[nH]c2ccccc12)C(=O)N[C@H](C)C(=O)N[C@@H](CCC(=O)O)C(=O)NCC(=O)N[C@H](C(=O)N[C@@H](C)C(N)=O)CSCCC3=O [Peptide 69] (HELM PEPTIDE1{A.C.S.F.P.K.C.P.W.[dA].E.G.C.A.[am]}|CHEM1{[O=C(CC[*:1])N1CN(C(=O)CC[*:2])CN(C(=O)CC[*:3])C1]}$PEPTIDE1,CHEM1,2:R3-1:R1|PEPTIDE1,CHEM1,7:R3-1:R2|PEPTIDE1,CHEM1,13:R3-1:R3$$$V2.0)	–	–	Kd (EcPBP3 [2]): > 2500 nM; MIC E. coli GKCW102 (EcPore) (E. coli GKCW102 (EcPore)): > 16 µg/mL
CSCC[C@@H]1NC(=O)[C@H](CC(C)C)NC(=O)[C@@H]2CSCCC(=O)N3CN(CN(C3)C(=O)CCSC[C@@H](C(=O)N[C@@H](C)C(N)=O)NC(=O)[C@H](CC(C)C)NC(=O)[C@H](CCC(=O)O)NC(=O)[C@@H]3CCCN3C(=O)[C@H](Cc3ccccc3)NC1=O)C(=O)CCSC[C@H](NC(=O)[C@H](C)N)C(=O)N[C@@H](CCCNC(=N)N)C(=O)NCC(=O)N[C@@H](CCC(=O)O)C(=O)N[C@@H](CO)C(=O)N[C@@H](CO)C(=O)N[C@@H](Cc1ccccc1)C(=O)N2 [Peptide 4] (HELM PEPTIDE1{A.C.R.G.E.S.S.F.C.L.M.F.P.E.L.C.A.[am]}|CHEM1{[O=C(CC[*:1])N1CN(C(=O)CC[*:2])CN(C(=O)CC[*:3])C1]}$PEPTIDE1,CHEM1,2:R3-1:R1|PEPTIDE1,CHEM1,9:R3-1:R2|PEPTIDE1,CHEM1,16:R3-1:R3$$$V2.0)	–	> 100000	–
C[C@H](N)C(=O)N[C@H]1CSCCC(=O)N2CN3CN(C2)C(=O)CCSC[C@H](NC(=O)CNC(=O)[C@H](Cc2ccccc2)NC(=O)[C@H]([C@@H](C)O)NC(=O)[C@H](CCCNC(=N)N)NC1=O)C(=O)N[C@@H](Cc1c[nH]c2ccccc12)C(=O)N[C@@H](Cc1c[nH]c2ccccc12)C(=O)N[C@@H](CCC(=O)O)C(=O)NCC(=O)N[C@H](C(=O)N[C@@H](C)C(N)=O)CSCCC3=O [Peptide 5]	–	1550	IC50 (nM) by fluorescence polarisation with Bocillin FL as tracer, Geometric mean (Lower 95% CI of geo. Mean; Upper 95% CI of geo. Mean, n=number of values) (EcPBP3 [1]): showed binding to EcPBP3; Kd (EcPBP3 [2]): 369 nM; MIC E. coli GKCW102 (EcPore) (E. coli GKCW102 (EcPore)): limited activity
CC(C)C[C@@H]1NC(=O)[C@H](Cc2ccccc2)NC(=O)[C@H](CCC(=O)O)NC(=O)[C@H]([C@@H](C)O)NC(=O)[C@H](C)NC(=O)[C@@H](NC(=O)[C@H](C)N)CSCCC(=O)N2CN3CN(C2)C(=O)CCSC[C@H](NC(=O)[C@H](CC(C)C)NC(=O)[C@@H]2CCCN2C(=O)[C@H](Cc2ccc(O)cc2)NC1=O)C(=O)N[C@@H](Cc1c[nH]c2ccccc12)C(=O)N[C@@H](Cc1c[nH]c2ccccc12)C(=O)N[C@@H](CC(=O)O)C(=O)N[C@@H](CC(N)=O)C(=O)N[C@H](C(=O)N[C@@H](C)C(N)=O)CSCCC3=O [Peptide 7] (HELM PEPTIDE1{A.C.A.T.E.F.L.Y.P.L.C.W.W.D.N.C.A.[am]}|CHEM1{[O=C(CC[*:1])N1CN(C(=O)CC[*:2])CN(C(=O)CC[*:3])C1]}$PEPTIDE1,CHEM1,2:R3-1:R1|PEPTIDE1,CHEM1,11:R3-1:R2|PEPTIDE1,CHEM1,16:R3-1:R3$$$V2.0)	–	> 100000	–
